Test results taken from patent US20200383985A1, “Inhibitors of Protease Activated Receptor-2” (Endosome Therapeutics, Inc., priority 2017, published 2020).

What was measured:
colonic afferent neurons = experiment: Colonic afferent recordings, healthy mice; set-up: species or system mouse; settings: for amplification of frequency of firing to mechanical stimulation: healthy mice, 2 g filament, trypsin 10 nM, NE 100 nM, CS 100 nM, 10 min; for basal mechanical sensitivity of colonic afferents / trypsin-induced sensitization of mechanical responses: I-343 10 μM, PS2 or PS2 inact 50 μM
Description: To examine whether proteases cleave PAR2 on the peripheral terminals of colonic nociceptors to induce mechanical hypersensitivity, single unit recordings from afferent neurons innervating the mouse colon were made. Receptive fields were identified by mechanical stimulation of the mucosal surface with von Frey filaments, proteases were applied to the mucosal receptive fields, and mechanical responses were re-evaluated to assess sensitization. Under basal conditions, repeated mechanical stimulation (2 g filament) induced reproducible firing (FIG. 9A). […] The results support the hypothesis that PAR2 endocytosis is required trypsin-induced sensitization of colonic afferent neurons. The colon and rectum (5-6 cm) was removed from C57BL/6 mice. Afferent recordings were made from splanchnic nerves as described (Hughes, P. A. et al., Gut 2009, 58(10): 1333-134; Brierley, S. M. et al., Gastroenterology 2004, 127(1): 166-178). Briefly, the intestine was opened and pinned flat, mucosal side up, in an organ bath. […] The splanchnic nerve was extended into a paraffin-filled recording compartment, in which finely dissected strands were laid onto a platinum electrode for single-unit extracellular recordings of action potentials generated by mechanical stimulation of receptive fields in the colon. Receptive fields were identified by mechanical stimulation of the mucosal surface with a brush of sufficient stiffness to activate all types of mechanosensitive afferents. […] These neurons express an array of channels and receptors involved in pain, become mechanically hypersensitive in models of chronic visceral pain, and have a nociceptor phenotype. They are therefore referred to as “colonic nociceptors”. […] Proteases were applied to a metal cylinder placed over the receptive mucosal field of interest. […] Action potentials were analyzed using the Spike 2 […] function and discriminated as single units on the basis of distinguishable waveform, amplitude and duration.

mPAR2-GFP = molecular target: T1, mPAR2-GFP (Mus musculus, UniProt P55086); experiment: PAR2 trafficking (endocytosis) in DRG neurons; assay type: cell-based; settings: for mPAR2-GFP endocytosis: protease 100 nM, 30 min
T1 construct: expressed in transfected cells; host or cells: mouse (C57BL/6) DRG neurons, nucleofection
T1 sequence (P55086 26-399): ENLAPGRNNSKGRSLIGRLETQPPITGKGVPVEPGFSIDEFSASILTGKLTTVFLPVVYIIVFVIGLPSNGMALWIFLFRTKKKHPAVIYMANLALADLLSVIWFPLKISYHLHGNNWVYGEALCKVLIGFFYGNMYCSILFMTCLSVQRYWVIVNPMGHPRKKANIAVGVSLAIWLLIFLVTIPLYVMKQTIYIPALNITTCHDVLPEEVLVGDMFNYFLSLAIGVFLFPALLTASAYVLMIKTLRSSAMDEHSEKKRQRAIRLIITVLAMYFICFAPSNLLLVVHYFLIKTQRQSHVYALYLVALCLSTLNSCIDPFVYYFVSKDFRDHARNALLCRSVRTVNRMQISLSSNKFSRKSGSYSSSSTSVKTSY
Protocol: To assess endocytosis of PAR2 in nociceptors, mouse (m) PAR2-GFP was transfected in to mouse DRG neurons. In vehicle-treated neurons, mPAR2-GFP was detected at the plasma membrane and in intracellular compartments that may correspond to stores of PAR2 in the Golgi apparatus (FIG. 4A) (Jensen D. D., et al. J Biol Chem. 2016, 291(21): 11285-11299). Trypsin, but not NE or CS (100 nM, 30 min), induced mPAR2-GFP endocytosis (FIG. 4A, B). Dy4, but not Dy4 inact, inhibited trypsin-induced endocytosis of mPAR2-GFP (FIG. 4C). To determine whether PAR2 recruits βARRs, which mediate endocytosis, Bioluminescence Resonance Energy Transfer (BRET) sensors were expressed for PAR2-RLuc8 (donor) and βARR2-YFP (acceptor) in mouse DRG neurons. Trypsin, but not NE or CS, increased PAR2-RLuc8/βARR2-YFP BRET (FIG. 4D).
DRG were collected from C57BL/6 mice and Sprague-Dawley rats (all levels). DRG were incubated with collagenase IV (2 mg/ml) and dispase II (1 mg/ml) for 30 min (mice) and 45 min (rats) at 37° C. DRG were dispersed by trituration with a fire-polished Pasteur pipette. Dissociated neurons were transfected with mPAR2-GFP (1 μg), the FRET biosensors CytoEKAR, NucEKAR, pmCKAR or CytoCKAR (all […]), or with the BRET biosensors PAR2-RLuc8 (125 ng) and βARR2-FYP (475 ng) using the Lonza 4D-Nucleofector X unit according to the manufacturer's instructions. […]
Mouse DRG neurons expressing mPAR2-GFP were incubated with trypsin (10 nM), CS (100 nM), NE (100 nM) or vehicle (30 min, 37° C.), and were fixed (4% paraformaldehyde, 20 min, 4C). NeuN was detected by indirect immunofluorescence as described (Jensen, D. D. et al., Sci Transl Med. 2017, 9(392), eaal3447). […] PAR2 internalization in NeuN-positive neurons was quantified using ImageJ software. The border of the cytoplasm in the neuronal soma was defined by NeuN fluorescence. mPAR2-GFP fluorescence within 0.5 μm of the border was defined as plasma membrane-associated receptor. The ratio of plasma membrane to cytosolic mPAR2-GFP was determined.

| mPAR2-GFP endocytosis (mPAR2-GFP) | trypsin-induced endocytosis of mPAR2-GFP (mPAR2-GFP; preincubated with Dy4 or Dy4 inact) | Molecule | amplification of frequency of firing to mechanical stimulation (colonic afferent neurons) [%] | basal mechanical sensitivity of colonic afferents (colonic afferent neurons) | trypsin-induced sensitization of mechanical responses (colonic afferent neurons) |
| --- | --- | --- | --- | --- | --- |
| not | – | NE: protease (elastase) activating PAR2 by biased mechanisms | 41.0±11.8 | – | – |
| – | – | O=C1NC(=NS(=O)(=O)c2cccc3ccccc23)S/C1=C\c1ccc(Br)cc1 [PS2] | – | did not affect | abolished |
| induced | – | trypsin | 35.8±5.9 | – | – |
| – | – | Cc1nc(C(=O)N2CCN(C(=O)c3cn4nc(-c5ccc(F)cc5)cc(C(C)(C)C)c4n3)C(C)(C)C2)n[nH]1 [Compound I-343, (8-(tert-butyl)-6-(4-fluorophenyl)imidazo[1,2-b]pyridazin-2-yl)(2,2-dimethyl-4-(5-methyl-1H-1,2,4-triazole-3-carbonyl)piperazin-1-yl)methanone] | – | did not affect | abolished |
| – | inhibited | O=C(N/N=C/c1cc(O)c(O)cc1O)c1cc2ccccc2cc1O [Dy4] | – | – | – |
